PubChem BioAssay AID492986 (Sanford-Burnham Center for Chemical Genomics, 2010)
Active and inactive are the calls of the source.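 How the source made its calls: active means IC50 below 20 µM; inactive means the rest.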

Target: Apelin receptor (Homo sapiens) (UniProt P35414)
Test: APJ receptor antagonists, beta-arrestin recruitment, SAR follow-up, cell-based, CHO-K1 AGTRL-1, PathHunter luminescence, set 4 (AID 492986)
Details: CHO-K1 AGTRL-1 beta-arrestin

Chain of Apelin receptor (Homo sapiens) (P35414 whole entry, looked up): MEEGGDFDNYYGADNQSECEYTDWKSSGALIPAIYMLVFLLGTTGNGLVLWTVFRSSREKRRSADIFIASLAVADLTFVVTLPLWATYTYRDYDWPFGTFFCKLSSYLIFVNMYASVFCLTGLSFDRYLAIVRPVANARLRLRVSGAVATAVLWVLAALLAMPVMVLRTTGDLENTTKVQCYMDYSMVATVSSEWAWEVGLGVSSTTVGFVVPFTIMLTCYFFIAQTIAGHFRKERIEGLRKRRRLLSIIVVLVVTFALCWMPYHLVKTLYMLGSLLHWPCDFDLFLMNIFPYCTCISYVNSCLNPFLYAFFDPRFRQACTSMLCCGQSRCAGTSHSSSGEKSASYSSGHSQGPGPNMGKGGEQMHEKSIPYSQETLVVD

Row | IC50 | SMILES
1 | > 79 µM (inactive) | Cc1ccnc(SCc2cc(=O)c(OC(=O)c3cccc(C#N)c3)co2)n1
2 | > 79 µM (inactive) | O=c1cc(CSc2ccc(F)cc2)occ1O
3 | > 79 µM (inactive) | O=C(Oc1coc(CCl)cc1=O)c1ccc(Cl)c([N+](=O)[O-])c1
4 | > 79 µM (inactive) | Cc1cc(C)nc(SCc2cc(=O)c(OS(=O)(=O)c3ccc([N+](=O)[O-])cc3)co2)n1
5 | > 79 µM (inactive) | Cc1ccnc(SCc2cc(=O)c(NC(=O)c3ccccc3)co2)n1
6 | > 79 µM (inactive) | Cc1cc(C)nc(SCc2cc(=O)c(OS(=O)(=O)c3ccccc3)co2)n1
